{
  "source": "patent US6376510B1",
  "about": "“Neuromuscular relaxants” (Newlaxant LLC, priority 1997, dated 2002)",
  "key": {"[1]": {"system": "anesthetized rats (evoked responses of anterior tibial muscle)", "assay": "In vivo neuromuscular block and cardiovascular side effects, anesthetized rat (Example 8, Table 3)", "conditions": "for ED50: Rattus norvegicus, iv; for VB (vagal block) / ΔBP (change in arterial blood pressure) / ΔH (change in heart rate) / RI (recovery index) / Onset: rat; for VB (vagal block) / ΔBP (change in arterial blood pressure) / ΔH (change in heart rate): at 80-85% neuromuscular blocking dose; for RI (recovery index): spontaneous recovery, 25-75% neuromuscular response; for Onset: time to 80-85% neuromuscular block", "source_text": "The neuromuscular blocking activity and other effects (e.g. cardiovascular side effects) of selected agents were investigated on several different experimental animals. Justification for this approach lies in the commonly known fact that the pharmacodynamic and pharmacokinetic properties of these agents are markedly variable from species to species. Therefore, the most important aspects of the projected therapeutic utility of these agents, e.g., neuromuscular blocking potency, onset and duration of action, and side effects cannot be ascertained in “in vitro” preparations or by using only one species of animals.\na) Adult, male albino rats were anesthetized with pentobarbital injected intraperitoneally. The trachea was cannulated for artificial respiration via a small animal respirator. The carotid artery was cannulated for recording blood pressure via a transducer and heart rate by a cardiotachograph on a polygraph. One external jugular vein was cannulated for i.v. drug administration. Neuromuscular function was monitored by electromyography, recording evoked responses from the anterior tibial muscle as a result of supramaximal nerve stimuli consisting of single or “train-of-four” rectangular pulses of 0.1-0.2 msec duration every 10-12 seconds, delivered to the sciatic or common peroneal nerve by a laboratory nerve stimulator. Another mode of stimulation included repeated single stimuli delivered at 0.1 Hz or 1 Hz. […] The agents were dissolved in physiologic saline and injected intravenously at appropriate time intervals. The intensity, onset, and duration of neuromuscular block and its type were determined with each agent. Through administering several doses, the doses corresponding to 50%, 80% and 90% neuromuscular block were determined. All agents were compared with selected standard neuromuscular blocking compounds, e.g. succinylcholine, pancuronium, mivacurium, or rocuronium.\nOnset=time in minutes to 80-85% neuromuscular block.\nRI=recovery index, minutes, spontaneous recovery, 25-75% neuromuscular response.\nVB=vagal block, %, at 80-85% neuromuscular blocking dose.\nΔHR=change in heart rate, %, at 80-85% neuromuscular blocking dose.\nΔBP=change in arterial blood pressure, %, at 80-85% neuromuscular blocking dose."}, "[2]": {"system": "anesthetized juvenile pigs", "assay": "animal or person", "assay_type": "in vivo", "conditions": "pig; for ED50: Sus scrofa, intravenous dose causing 50% neuromuscular block, read-out: ED50; for VB (vagal block) / ΔBP (change in arterial blood pressure) / ΔH (change in heart rate): at 80-85% neuromuscular blocking dose; for RI (recovery index): spontaneous recovery, 25-75% neuromuscular response; for Onset: time to 80-85% neuromuscular block", "source_text": "Both electromyographic and mechanomyographic responses can be quantified.\nThe techniques described under a) and b) were employed in other species as needed with the modification that juvenile pigs were initially anesthetized with inhalation of halothane (Table 5) and monkeys were initially sedated with intramuscular ketamine injections prior to inducing and maintaining general anesthesia using pentobarbital and propofol administered intravenously (Table 6)."}, "rabbits": {"system": "rabbits", "assay": "In vivo neuromuscular block and cardiovascular side effects, rabbit (Example 8, Table 7)", "conditions": "for ED50: Oryctolagus cuniculus, intravenous dose causing 50% neuromuscular block, read-out: ED50; for ΔBP (change in arterial blood pressure) / ΔH (change in heart rate): at 80-85% neuromuscular blocking dose; for RI (recovery index): spontaneous recovery, 25-75% neuromuscular response; for Onset: time to 80-85% neuromuscular block"}},
  "data": [
    {"smiles": "C[N+]1(Cc2ccccc2Br)[C@@H]2CC[C@H]1C[C@@H](OC(=O)CCCC(=O)O[C@H]1C[C@H]3CC[C@@H](C1)[N+]3(C)Cc1ccccc1Br)C2.[Br-].[Br-]", "note": "(stereo partly drawn) [bis[N-(2-bromobenzyl)tropanium-3α-yl]glutarate dibromide, reference compound]", "values": [
      {"measurement": "ED50", "setting": "[1]", "value": 1.4, "unit": "mg/kg"},
      {"measurement": "VB (vagal block)", "setting": "[1]", "value": 100, "unit": "%"},
      {"measurement": "ΔBP (change in arterial blood pressure)", "setting": "[1]", "value": "−9", "unit": "%"},
      {"measurement": "ΔH (change in heart rate)", "setting": "[1]", "value": 0, "unit": "%"},
      {"measurement": "RI (recovery index)", "setting": "[1]", "value": 3.6, "unit": "min"},
      {"measurement": "Onset", "setting": "[1]", "value": 2.3, "unit": "min"}
    ]},
    {"smiles": "C[N+]1(CC=Cc2ccccc2)[C@@H]2CC[C@H]1C[C@@H](OC(=O)CCCCCCCCCCC(=O)O[C@H]1C[C@H]3CC[C@@H](C1)[N+]3(C)CC=Cc1ccccc1)C2.[Br-].[Br-]", "note": "(stereo partly drawn) [bis[N-(3-(phenyl)prop-2-enyl)tropanium-3α-yl]1,10-decanedicarboxylate dibromide, reference compound]", "values": [
      {"measurement": "ED50", "setting": "[2]", "value": 0.17, "unit": "mg/kg"},
      {"measurement": "VB (vagal block)", "setting": "[2]", "value": 27, "unit": "%"},
      {"measurement": "ΔBP (change in arterial blood pressure)", "setting": "[2]", "value": "−10", "unit": "%"},
      {"measurement": "ΔH (change in heart rate)", "setting": "[2]", "value": 0, "unit": "%"},
      {"measurement": "RI (recovery index)", "setting": "[2]", "value": 6.4, "unit": "min"},
      {"measurement": "Onset", "setting": "[2]", "value": 1.60, "unit": "min"}
    ]},
    {"smiles": "CCCCC[N+]1(C)[C@@H]2CC[C@H]1C[C@@H](OC(=O)CCCCCCCCC(=O)O[C@H]1C[C@H]3CC[C@@H](C1)[N+]3(C)CCCCC)C2.[Br-].[Br-]", "note": "(stereo partly drawn) [bis[N-(pentyl)tropanium-3α-yl]sebacate dibromide, reference compound]", "values": [
      {"measurement": "ED50", "setting": "[2]", "value": 0.3, "unit": "mg/kg"},
      {"measurement": "VB (vagal block)", "setting": "[2]", "value": 50, "unit": "%"},
      {"measurement": "ΔBP (change in arterial blood pressure)", "setting": "[2]", "value": 0, "unit": "%"},
      {"measurement": "ΔH (change in heart rate)", "setting": "[2]", "value": 0, "unit": "%"},
      {"measurement": "RI (recovery index)", "setting": "[2]", "value": 6.9, "unit": "min"},
      {"measurement": "Onset", "setting": "[2]", "value": 2.00, "unit": "min"}
    ]},
    {"smiles": "C[N+]1(Cc2ccccc2)[C@@H]2CC[C@H]1C[C@@H](OC(=O)CCCC(=O)O[C@H]1C[C@H]3CC[C@@H](C1)[N+]3(C)Cc1ccccc1)C2.[Br-].[Br-]", "note": "(stereo partly drawn) [bis[N-benzyltropanium-3α-yl]glutarate dibromide, reference compound]", "values": [
      {"measurement": "ED50", "setting": "[1]", "value": 5.5, "unit": "mg/kg"},
      {"measurement": "VB (vagal block)", "setting": "[1]", "value": 100, "unit": "%"},
      {"measurement": "ΔBP (change in arterial blood pressure)", "setting": "[1]", "value": "−10", "unit": "%"},
      {"measurement": "ΔH (change in heart rate)", "setting": "[1]", "value": 0, "unit": "%"},
      {"measurement": "RI (recovery index)", "setting": "[1]", "value": 3.7, "unit": "min"},
      {"measurement": "Onset", "setting": "[1]", "value": 2.5, "unit": "min"}
    ]},
    {"smiles": "C[N+]1(Cc2ccccc2)[C@@H]2CC[C@H]1C[C@@H](OC(=O)CCCCCCCCC(=O)O[C@H]1C[C@H]3CC[C@@H](C1)[N+]3(C)Cc1ccccc1)C2.[Br-].[Br-]", "note": "(stereo partly drawn) [bis[N-benzyltropanium-3α-yl]sebacate dibromide, reference compound]", "values": [
      {"measurement": "ED50", "setting": "rabbits", "value": 0.075, "unit": "mg/kg"},
      {"measurement": "ΔBP (change in arterial blood pressure)", "setting": "rabbits", "value": 0, "unit": "%"},
      {"measurement": "ΔH (change in heart rate)", "setting": "rabbits", "value": 0, "unit": "%"},
      {"measurement": "RI (recovery index)", "setting": "rabbits", "value": 6, "unit": "min"},
      {"measurement": "Onset", "setting": "rabbits", "value": 2.3, "unit": "min"}
    ]},
    {"smiles": "CC[N+]1(C)[C@@H]2CC[C@H]1C[C@@H](OC(=O)CCCCC(=O)O[C@H]1C[C@H]3CC[C@@H](C1)[N+]3(C)CC)C2.[I-].[I-]", "note": "(stereo partly drawn) [bis[N-ethyltropanium-3α-yl]adipate diiodide, reference compound]", "values": [
      {"measurement": "ED50", "setting": "rabbits", "value": 0.15, "unit": "mg/kg"},
      {"measurement": "ΔBP (change in arterial blood pressure)", "setting": "rabbits", "value": 0, "unit": "%"},
      {"measurement": "ΔH (change in heart rate)", "setting": "rabbits", "value": 0, "unit": "%"},
      {"measurement": "RI (recovery index)", "setting": "rabbits", "value": 9, "unit": "min"},
      {"measurement": "Onset", "setting": "rabbits", "value": 2.2, "unit": "min"}
    ]},
    {"smiles": "C[N+]1(C)[C@@H]2CC[C@H]1C[C@@H](OC(=O)CCCC(=O)O[C@H]1C[C@H]3CC[C@@H](C1)[N+]3(C)C)C2.[I-].[I-]", "note": "[bis[N-methyltropanium-3α-yl]glutarate diiodide, reference compound]", "values": [
      {"measurement": "ED50", "setting": "[1]", "value": 2, "unit": "mg/kg"},
      {"measurement": "VB (vagal block)", "setting": "[1]", "value": 100, "unit": "%"},
      {"measurement": "ΔBP (change in arterial blood pressure)", "setting": "[1]", "value": 0, "unit": "%"},
      {"measurement": "ΔH (change in heart rate)", "setting": "[1]", "value": 0, "unit": "%"},
      {"measurement": "RI (recovery index)", "setting": "[1]", "value": 4.2, "unit": "min"},
      {"measurement": "Onset", "setting": "[1]", "value": 1.2, "unit": "min"}
    ]}
  ]
}
